According to patent US7091038B2, “Ecdysone receptor-based inducible gene expression system” (RheoGene, Inc., priority 2000, dated 2006):

What was measured:
[1] = tested on: CfVgRXR + MmRXR; assay: Transactivation of reporter gene through switch 1.9 in CV1 cells; type: cell-based, Choristoneura fumiferana; Mus musculus; conditions: switch 1.9, pIND(SP1)LacZ
Protocol: This example was prepared in the same way as switch 1.8 except DmEcR was replaced with a truncated CfEcR comprising a partial A/B domain and the complete CDEF domains [SEQ ID NO: 70 (polynucleotide) and SEQ ID NO: 71 (polypeptide)].
(§1) The cells were harvested and reporter activity was assayed.
(§2) The cells were plated when they reached 50% confluency.
(§3) The same procedures described for NIH3T3 cells were followed for CV1 cells
(§4) Cells were harvested 24–48 hr after adding ligands. […] Twenty μl of lysate was assayed.

[2] = tested on: CfVgRXR; assay: Transactivation of reporter gene through switch 1.10 in CV1 cells; type: cell-based, Choristoneura fumiferana; conditions: switch 1.10, pIND(SP1)LacZ
Protocol: This example was prepared in the same way as switch 1.9 except MmRXR (SEQ ID NO: 62) was deleted.
as §1, §2, §3, §4

[3] = biological target: T1, DmVgRXR + MmRXR (Drosophila melanogaster, UniProt P34021, E282G/G283S/G286V); assay: Transactivation of reporter gene through switch 1.8 in 293 cells; type: cell-based, Drosophila melanogaster; Mus musculus; parameters: host or cells: CHO, NIH3T3, 293 or CV1 cells; conditions: switch 1.8, pIND(SP1)LacZ
T1 sequence (P28700 whole entry, the tested form may be a part): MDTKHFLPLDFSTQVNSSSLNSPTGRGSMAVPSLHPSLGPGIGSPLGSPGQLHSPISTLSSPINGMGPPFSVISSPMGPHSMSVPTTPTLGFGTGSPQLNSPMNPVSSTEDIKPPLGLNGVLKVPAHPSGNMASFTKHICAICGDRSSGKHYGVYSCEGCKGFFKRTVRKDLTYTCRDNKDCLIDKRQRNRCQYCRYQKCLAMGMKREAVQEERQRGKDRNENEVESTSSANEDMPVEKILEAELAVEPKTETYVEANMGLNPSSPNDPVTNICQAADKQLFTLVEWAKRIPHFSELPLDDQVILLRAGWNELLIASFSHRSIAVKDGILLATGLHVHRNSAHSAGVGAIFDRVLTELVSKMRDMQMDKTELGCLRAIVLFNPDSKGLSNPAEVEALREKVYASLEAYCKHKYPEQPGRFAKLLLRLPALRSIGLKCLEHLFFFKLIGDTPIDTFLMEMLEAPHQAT
T1 sequence (P34021 whole entry E282G/G283S/G286V, the tested form may be a part): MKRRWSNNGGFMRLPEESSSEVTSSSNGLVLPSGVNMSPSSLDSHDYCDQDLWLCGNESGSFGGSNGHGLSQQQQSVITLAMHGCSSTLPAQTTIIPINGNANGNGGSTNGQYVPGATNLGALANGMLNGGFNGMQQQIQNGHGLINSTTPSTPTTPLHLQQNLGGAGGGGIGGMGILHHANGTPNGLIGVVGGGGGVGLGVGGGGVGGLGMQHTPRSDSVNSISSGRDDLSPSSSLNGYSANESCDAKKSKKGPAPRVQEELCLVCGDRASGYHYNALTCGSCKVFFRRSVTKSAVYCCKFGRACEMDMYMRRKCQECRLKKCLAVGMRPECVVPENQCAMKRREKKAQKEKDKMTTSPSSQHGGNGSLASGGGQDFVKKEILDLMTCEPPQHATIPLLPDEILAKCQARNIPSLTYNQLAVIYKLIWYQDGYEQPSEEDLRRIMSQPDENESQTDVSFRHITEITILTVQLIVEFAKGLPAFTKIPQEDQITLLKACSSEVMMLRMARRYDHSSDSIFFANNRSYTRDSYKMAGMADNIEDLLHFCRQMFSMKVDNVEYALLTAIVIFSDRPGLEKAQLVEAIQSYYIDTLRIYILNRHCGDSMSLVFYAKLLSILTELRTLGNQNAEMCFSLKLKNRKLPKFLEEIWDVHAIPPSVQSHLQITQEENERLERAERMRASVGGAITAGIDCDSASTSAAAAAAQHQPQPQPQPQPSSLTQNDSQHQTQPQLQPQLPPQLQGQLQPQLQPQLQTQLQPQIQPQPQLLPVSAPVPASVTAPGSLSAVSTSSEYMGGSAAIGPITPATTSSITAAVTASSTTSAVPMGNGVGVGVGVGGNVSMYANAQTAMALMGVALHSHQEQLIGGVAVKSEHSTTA
From the text: (§5) This system was purchased from Invitrogen Corp., Carlsbad, California. It comprises a Drosophila melanogaster EcR (“DmEcR”) with a modified DNABD fused to VP16AD and placed under the control of a CMV promoter (SEQ ID NO: 68). Full length MmRXR (SEQ ID NO: 62) was placed under the control of the RSV promoter (SEQ ID NO: 69). The reporter, pIND(SP1)LacZ, contains five copies of a modified ecdysone response element (“EcRE”, E/GRE), three copies of an SPI enhancer, and a minimal heat shock promoter, all of which were placed upstream to the LacZ reporter gene.
as §1
The same procedures described for CHO were followed for 293 cells except that the cells were plated in biocoated plates to avoid clumping.
as §4

[4] = tested on: GAL4RXR + VP16CfEcR; assay: Transactivation of reporter gene through switch 1.3 in CV1 cells; type: cell-based, Mus musculus; Choristoneura fumiferana; conditions: switch 1.3, pGAL4RELuc
Protocol: as §1, §2, §3, §4

[5] = tested on: GAL4EcR + VP16USP; assay: Transactivation of reporter gene through switch 1.2 in CHO cells; type: cell-based, Choristoneura fumiferana; conditions: switch 1.2, pGAL4RELuc
Protocol: This construct was prepared in the same way as in switch 1.1 above except MmRXRDEF was replaced with the D, E and F domains from spruce budworm USP (“CfUSPDEF”; SEQ ID NO: 67). The constructs used in this example are similar to those disclosed in U.S. Pat. No. 5,880,333 except that Choristoneura fumiferana USP rather than Drosophila melanogaster USP was utilized.
as §1, §4

[6] = tested on: VP16CfEcR; assay: Transactivation of reporter gene through switch 1.7 in CV1 cells; type: cell-based, Choristoneura fumiferana; conditions: switch 1.7, pEcRELuc
Protocol: Six ecdysone response elements (“EcRE”; SEQ ID NO: 55) from the hsp27 gene were placed upstream of the promoter and a luciferase gene (SEQ ID NO: 66). This switch most probably uses endogenous RXR.
as §1, §2, §3, §4

[7] = tested on: GAL4CfEcRVP16; assay: Transactivation of reporter gene through switch 1.6 in 3T3 cells; type: cell-based, Choristoneura fumiferana; conditions: switch 1.6, pGAL4RELuc
Protocol: This construct was prepared so that both the GAL4 DNABD and the VP16AD were placed on the same molecule. GAL4DNABD (SEQ ID NO: 43) and VP16AD (SEQ ID NO: 49) were fused to CfEcRDEF (SEQ ID NO: 3) at N-and C-termini respectively.
as §1, §2, §4

[8] = biological target: T1, DmVgRXR + MmRXR; assay: Transactivation of reporter gene through switch 1.8 in CHO cells; type: cell-based, Drosophila melanogaster; Mus musculus; parameters: host or cells: CHO, NIH3T3, 293 or CV1 cells; conditions: switch 1.8, pIND(SP1)LacZ
From the text: as §5, §1, §4

[9] = tested on: CfEcRDEF:MmRXRDEF; assay: CfEcR-based yeast two-hybrid assay, LacZ reporter pSH118; type: cell-based, Choristoneura fumiferana; Mus musculus
From the text: This construct results in a LexA:CfEcRDEF fusion that is expressed under the GAL1 promoter.
The D, E, and F domains from mouse (Mus musculus) RXR α (“MmRXRDEF”; SEQ ID NO: 22) were fused to a B42 transactivation domain (“B42AD”; SEQ ID NO: 53) and placed under the control of a GAL1 promoter (SEQ ID NO: 73) in pB42AD (CLONTECH). This construct results in a B42AD:MmRXR-DEF fusion that is expressed under the GAL 1 promoter.
A reporter plasmid comprising a β-galactosidase gene (LacZ; SEQ ID NO: 74) under the control of an 8XLexA operon response element (“8XlexAop”; SEQ ID NO: 75) operably linked to a minimal TATAA region from the GAL1 promoter (p8op-lacZ from CLONTECH) was used to monitor inducible gene expression.
Saccharomyces cerevisiae yeast cells (EGY48; CLONTECH) were used in these experiments. Cells were maintained in liquid culture media with the appropriate drop out amino acids. Standard methods for culture and maintenance of the cells were followed. […]
DNA constructs pSH118, CfEcRDEF, and MmRXRA/BCDEF, MmRXRDEF, or […] were transfected into yeast cells. […] A colony from each group of transformants was grown in the liquid culture in the presence of 0, 0.04, 0.2, 1, 5 and 25 μM GS™-E. The reporter activity was measured as described above 4 hours after adding ligand. Total RLUs were calculated and the numbers on the bars of FIG. 16 show maximum fold induction observed for that group (see FIGS. 16 and 17).
The best performing transformed yeast strain from the analysis above comprising CfEcRDEF:MmRXRDEF was used to determine the induction activity of three steroid ligands (20E, PonA, MurA) and four non-steroid ligands (GS™-E, RH2485, RH5992, RH5849) in this yeast-based format. The yeast cells were cultured in the presence of 0, 0.l, 1, 10, 50 and 100 μM ligands for four hours and the reporter activity was measured as described above. Total RLUs were calculated and the numbers on the top of the bars of FIG. 18 show the maximum fold induction for that group (see FIGS. 18 and 19).

CCc1c(OC)cccc1C(=O)NN(C(=O)c1cc(C)cc(C)c1)C(C)(C)C [N-(2-ethyl-3-methoxybenzoyl)-N′-(3,5-dimethylbenzoyl)-N′-t-butylhydrazine]
Mean Fold Activation Through N-(2-ethyl-3-methoxybenzoyl)-N′-(3,5-dimethylbenzoyl)-N′-t-butylhydrazine [1]: 7 fold
Mean Fold Activation Through N-(2-ethyl-3-methoxybenzoyl)-N′-(3,5-dimethylbenzoyl)-N′-t-butylhydrazine [2]: 1 fold
Mean Fold Activation Through N-(2-ethyl-3-methoxybenzoyl)-N′-(3,5-dimethylbenzoyl)-N′-t-butylhydrazine [3]: 21 fold
Mean Fold Activation Through N-(2-ethyl-3-methoxybenzoyl)-N′-(3,5-dimethylbenzoyl)-N′-t-butylhydrazine [4]: 25 fold
Mean Fold Activation with 50 μM N-(2-ethyl-3-methoxybenzoyl)-N′-(3,5-dimethylbenzoyl)-N′-t-butylhydrazine [5]: 2 fold
Mean Fold Activation Through N-(2-ethyl-3-methoxybenzoyl)-N′-(3,5-dimethylbenzoyl)-N′-t-butylhydrazine [6]: 1 fold
Mean Fold Activation Through N-(2-ethyl-3-methoxybenzoyl)-N′-(3,5-dimethylbenzoyl)-N′-t-butylhydrazine [7]: 7 fold
Mean Fold Activation with 50 μM N-(2-ethyl-3-methoxybenzoyl)-N′-(3,5-dimethylbenzoyl)-N′-t-butylhydrazine [8]: 14 fold
Fold induction ([9]; yeast cells, CfEcRDEF/MmRXRDEF, 0–25 μM, 4 hours after adding ligand): approximately 1800 fold
Induction of gene expression (relative performance of ligands) ([9]; yeast strain comprising CfEcRDEF:MmRXRDEF, 0–100 μM ligand for four hours, FIGS. 18 and 19): induce gene expression better than any other ligand tested
